“And” between values parts separate entries of the source, which are not always exact repeats. Equal entries are not always repeated. Where two headings read alike, the source gives them in different places.

Experiment [1] has as its system metastatic colorectal cancer. As to conditions: patients with metastatic colorectal cancer; cited from earlier work.
In experiment [2] the test system is VEGFR (Flk-1/KDR). As to the kind of experiment: VEGF-stimulated Flk-1 tyrosine phosphorylation in Flk-1/NIH 3T3 cells. The format is cell-based, human. Here is the method: (§1) Inhibition of growth factor-dependent receptor tyrosine phosphorylation by GFBs. Starved Flk-1/KDR-overexpressing NIH 3T3 cells (Flk-1/NIH 3T3) or NIH 3T3 cells were pretreated with GFBs for 5 min before stimulation with VEGF (50 ng/ml) or PDGF-BB (10 ng/ml) for 10 min, respectively. The cells were then harvested and lysed, and proteins from the lysates were separated by SDS-PAGE and transferred to nitrocellulose. Membranes then were either immunoblotted with anti-phospho-VEGFR2 antibody (Cell Signaling Technologies, Beverly, Mass.) for activated Flk-1 or anti-phospho-tyrosine antibody (4G10, Upstate Biotechnology, Lake Placid, N.Y.) for activated PDGFR. Phosphotyrosine Flk-1 and PDGFR were quantified using a Bio-Rad Model GS-700 Imaging Densitometer (Bio-Rad Laboratories, Inc, Hercules, Calif.) (Blaskovich, M. A. et al. Nat Biotechnol, 2000, 18:1065-70).

The test system of experiment [3] is PDGFR. The experiment can be described thus: PDGF-stimulated PDGFR tyrosine phosphorylation in NIH 3T3 cells. The format is cell-based, mouse. The protocol:
as §1

Experiment [4] relates to pancreatic tumors. The conditions noted are these: Bergers et al. 2003; cited from earlier work.
The mark [5] stands for this setting: VEGF 50 ng/ml stimulated Flk-1 tyrosine phosphorylation, read-out: IC50 (μM) VEGFR.
The mark [6] stands for this setting: PDGF-BB 10 ng/ml stimulated receptor tyrosine phosphorylation, NIH 3T3 cells; read-out: IC50 (μM) PDGFR.
[7] abbreviates: read-out: IC50 (μM) VEGFR, VEGF 50 ng/ml stimulated Flk-1 tyrosine phosphorylation.
Setting [8] is: read-out: IC50 (μM) PDGFR; PDGF-BB 10 ng/ml stimulated receptor tyrosine phosphorylation, NIH 3T3 cells.

For “AVASTIN: humanized anti-VEGF monoclonal antibody”, the “increase of median survival” value in experiment [1] is 5 months. Consider `CCCCOc1c2cc(C(=O)Nc3cc(C(=O)O)cc(C(=O)OC)c3)cc1Cc1cc(C(=O)Nc3cc(C(=O)O)cc(C(=O)OC)c3)cc(c1OCCCC)Cc1cc(C(=O)Nc3cc(C(=O)O)cc(C(=O)OC)c3)cc(c1OCCCC)Cc1cc(C(=O)Nc3cc(C(=O)O)cc(C(=O)OC)c3)cc(c1OCCCC)C2` [GFB209], for which the IC50 in experiment [2] (setting [5]) was 5.58 ± 4.11 µM; in experiment [3] (setting [6]), 2.9 µM and 2.91 µM. Turning to `CCCCOc1c2cc(C(=O)Nc3cc(C(=O)NC(CC(=O)O)C(=O)O)cc(C(=O)NC(Cc4ccc(O)cc4)C(=O)O)c3)cc1Cc1cc(C(=O)Nc3cc(C(=O)NC(CC(=O)O)C(=O)O)cc(C(=O)NC(Cc4ccc(O)cc4)C(=O)O)c3)cc(c1OCCCC)Cc1cc(C(=O)Nc3cc(C(=O)NC(CC(=O)O)C(=O)O)cc(C(=O)NC(Cc4ccc(O)cc4)C(=O)O)c3)cc(c1OCCCC)Cc1cc(C(=O)Nc3cc(C(=O)NC(CC(=O)O)C(=O)O)cc(C(=O)NC(Cc4ccc(O)cc4)C(=O)O)c3)cc(c1OCCCC)C2` (stereo not shown) [GFB205], the IC50 in experiment [2] (setting [7]) came out at 5.86 ± 0.68 µM. `CCCCOc1c2cc(C(=O)Nc3cc(C(=O)O)cc(C(=O)NC4CCCCC4)c3)cc1Cc1cc(C(=O)Nc3cc(C(=O)O)cc(C(=O)NC4CCCCC4)c3)cc(c1OCCCC)Cc1cc(C(=O)Nc3cc(C(=O)O)cc(C(=O)NC4CCCCC4)c3)cc(c1OCCCC)Cc1cc(C(=O)Nc3cc(C(=O)O)cc(C(=O)NC4CCCCC4)c3)cc(c1OCCCC)C2` [GFB212]: the IC50 in experiment [2] (setting [5]) was greater than 10 µM; in experiment [3] (setting [6]), 0.29 ± 0.08 µM. Taken in the same sequence, the figures for `CCCCOc1c2cc(C(=O)Nc3cc(C(=O)O)cc(C(=O)Nc4ccncc4)c3)cc1Cc1cc(C(=O)Nc3cc(C(=O)O)cc(C(=O)Nc4ccncc4)c3)cc(c1OCCCC)Cc1cc(C(=O)Nc3cc(C(=O)O)cc(C(=O)Nc4ccncc4)c3)cc(c1OCCCC)Cc1cc(C(=O)Nc3cc(C(=O)O)cc(C(=O)Nc4ccncc4)c3)cc(c1OCCCC)C2` [GFB218] were greater than 10 µM and 0.54 ± 0.15 µM. Consider `CCCCOc1c2cc(C(=O)Nc3cc(C(=O)NCCC(=O)O)cc(C(=O)NCCC(=O)O)c3)cc1Cc1cc(C(=O)Nc3cc(C(=O)NCCC(=O)O)cc(C(=O)NCCC(=O)O)c3)cc(c1OCCCC)Cc1cc(C(=O)Nc3cc(C(=O)NCCC(=O)O)cc(C(=O)NCCC(=O)O)c3)cc(c1OCCCC)Cc1cc(C(=O)Nc3cc(C(=O)NCCC(=O)O)cc(C(=O)NCCC(=O)O)c3)cc(c1OCCCC)C2` [GFB203], for which the IC50 in experiment [2] (setting [5]) turned out to be 19.8 ± 2.9 µM. `Cc1[nH]c(/C=C2\C(=O)Nc3ccccc32)c(C)c1CCC(=O)O` [SU6668]: the “effect on pancreatic tumors” value in experiment [4] is “induced regression of advanced pancreatic tumor at late stage of development”. Take `CCCCOc1c2cc(C(=O)Nc3cc(C(=O)O)cc(C(=O)O)c3)cc1Cc1cc(C(=O)Nc3cc(C(=O)O)cc(C(=O)O)c3)cc(c1OCCCC)Cc1cc(C(=O)Nc3cc(C(=O)O)cc(C(=O)O)c3)cc(c1OCCCC)Cc1cc(C(=O)Nc3cc(C(=O)O)cc(C(=O)O)c3)cc(c1OCCCC)C2` [GFB201]: the IC50 came out at 4.96 ± 0.34 µM in experiment [2] (setting [5]) and 2.62 ± 0.5 µM in experiment [3] (setting [6]). `CCCCOc1c2cc(C(=O)Nc3cc(C(=O)NCCC(=O)O)cc(C(=O)N[C@@H](Cc4ccc(O)cc4)C(=O)O)c3)cc1Cc1cc(C(=O)Nc3cc(C(=O)NCCC(=O)O)cc(C(=O)N[C@@H](Cc4ccc(O)cc4)C(=O)O)c3)cc(c1OCCCC)Cc1cc(C(=O)Nc3cc(C(=O)NCCC(=O)O)cc(C(=O)N[C@@H](Cc4ccc(O)cc4)C(=O)O)c3)cc(c1OCCCC)Cc1cc(C(=O)Nc3cc(C(=O)NCCC(=O)O)cc(C(=O)N[C@@H](Cc4ccc(O)cc4)C(=O)O)c3)cc(c1OCCCC)C2` [GFB207]: in experiment [2] (setting [5]), the IC50 came to 18.4 ± 2.72 µM. With `CCCCOc1c2cc(C(=O)Nc3cc(C(=O)O)cc(C(=O)NC(C)(C)C)c3)cc1Cc1cc(C(=O)Nc3cc(C(=O)O)cc(C(=O)NC(C)(C)C)c3)cc(c1OCCCC)Cc1cc(C(=O)Nc3cc(C(=O)O)cc(C(=O)NC(C)(C)C)c3)cc(c1OCCCC)Cc1cc(C(=O)Nc3cc(C(=O)O)cc(C(=O)NC(C)(C)C)c3)cc(c1OCCCC)C2` [GFB213], the IC50 in experiment [2] (setting [5]) is 0.85 ± 0.44 µM; in experiment [3] (setting [6]), 0.57 ± 0.06 µM. Consider `CCCCOc1c2cc(C(=O)Nc3cc(C(=O)O)cc(C(=O)Nc4cccc5ccccc45)c3)cc1Cc1cc(C(=O)Nc3cc(C(=O)O)cc(C(=O)Nc4cccc5ccccc45)c3)cc(c1OCCCC)Cc1cc(C(=O)Nc3cc(C(=O)O)cc(C(=O)Nc4cccc5ccccc45)c3)cc(c1OCCCC)Cc1cc(C(=O)Nc3cc(C(=O)O)cc(C(=O)Nc4cccc5ccccc45)c3)cc(c1OCCCC)C2` [GFB219], for which the IC50 in experiment [2] (setting [5]) was greater than 10 µM; in experiment [3] (setting [6]) it was 0.53 ± 0.15 µM. Take `CCCCOc1c2cc(C(=O)Nc3cc(C(=O)O)cc(C(=O)NC(C)C)c3)cc1Cc1cc(C(=O)Nc3cc(C(=O)O)cc(C(=O)NC(C)C)c3)cc(c1OCCCC)Cc1cc(C(=O)Nc3cc(C(=O)O)cc(C(=O)NC(C)C)c3)cc(c1OCCCC)Cc1cc(C(=O)Nc3cc(C(=O)O)cc(C(=O)NC(C)C)c3)cc(c1OCCCC)C2` [GFB214]: the IC50 in experiment [2] (setting [5]) was greater than 10 µM; in experiment [3] (setting [6]), 0.17 ± 0.02 µM.

With `CCCCOc1c2cc(C(=O)Nc3cc(C(=O)O)cc(C(=O)NCc4ccccc4)c3)cc1Cc1cc(C(=O)Nc3cc(C(=O)O)cc(C(=O)NCc4ccccc4)c3)cc(c1OCCCC)Cc1cc(C(=O)Nc3cc(C(=O)O)cc(C(=O)NCc4ccccc4)c3)cc(c1OCCCC)Cc1cc(C(=O)Nc3cc(C(=O)O)cc(C(=O)NCc4ccccc4)c3)cc(c1OCCCC)C2` [GFB211], the results for the IC50 in experiment [2] (setting [7]) and in experiment [3] (setting [8]) were 13 ± 0.49 µM and 1.34 ± 0.32 µM, respectively. As for `CCCCOc1c2cc(C(=O)Nc3cc(C(=O)O)cc(C(=O)NCCC)c3)cc1Cc1cc(C(=O)Nc3cc(C(=O)O)cc(C(=O)NCCC)c3)cc(c1OCCCC)Cc1cc(C(=O)Nc3cc(C(=O)O)cc(C(=O)NCCC)c3)cc(c1OCCCC)Cc1cc(C(=O)Nc3cc(C(=O)O)cc(C(=O)NCCC)c3)cc(c1OCCCC)C2` [GFB215], the values for the IC50 in experiment [2] (setting [5]) and in experiment [3] (setting [6]) were greater than 10 µM and 0.21 ± 0.13 µM, respectively.

Take `CCCCOc1c2cc(C(=O)Nc3cc(C(=O)NC(CC(=O)O)C(=O)O)cc(C(=O)NC(CC(=O)O)C(=O)O)c3)cc1Cc1cc(C(=O)Nc3cc(C(=O)NC(CC(=O)O)C(=O)O)cc(C(=O)NC(CC(=O)O)C(=O)O)c3)cc(c1OCCCC)Cc1cc(C(=O)Nc3cc(C(=O)NC(CC(=O)O)C(=O)O)cc(C(=O)NC(CC(=O)O)C(=O)O)c3)cc(c1OCCCC)Cc1cc(C(=O)Nc3cc(C(=O)NC(CC(=O)O)C(=O)O)cc(C(=O)NC(CC(=O)O)C(=O)O)c3)cc(c1OCCCC)C2` (stereo not shown) [GFB202]: the values for the IC50 in experiment [2] (setting [7]) and in experiment [3] (setting [8]) were 11.3 ± 2.9 µM and 1.39 ± 0.38 µM, respectively.

In the case of `Cc1cc(C)c(/C=C2\C(=O)Nc3ccccc32)[nH]1` [SU5416], the “effect on pancreatic tumors” value in experiment [4] is reported as “suppresses early, but not late, development of pancreatic tumors”.

`CCCCOc1c2cc(C(=O)Nc3cc(C(=O)NCCC(=O)O)cc(C(=O)N[C@@H](Cc4ccc(OCC(=O)O)cc4)C(=O)O)c3)cc1Cc1cc(C(=O)Nc3cc(C(=O)NCCC(=O)O)cc(C(=O)N[C@@H](Cc4ccc(OCC(=O)O)cc4)C(=O)O)c3)cc(c1OCCCC)Cc1cc(C(=O)Nc3cc(C(=O)NCCC(=O)O)cc(C(=O)N[C@@H](Cc4ccc(OCC(=O)O)cc4)C(=O)O)c3)cc(c1OCCCC)Cc1cc(C(=O)Nc3cc(C(=O)NCCC(=O)O)cc(C(=O)N[C@@H](Cc4ccc(OCC(=O)O)cc4)C(=O)O)c3)cc(c1OCCCC)C2` [GFB208]: the IC50 in experiment [3] (setting [6]) amounted to 0.84 ± 0.06 µM. Regarding `CCCCOc1c2cc(C(=O)Nc3cc(C(=O)OCc4ccccc4)cc(C(=O)OC(C)(C)C)c3)cc1Cc1cc(C(=O)Nc3cc(C(=O)OCc4ccccc4)cc(C(=O)OC(C)(C)C)c3)cc(c1OCCCC)Cc1cc(C(=O)Nc3cc(C(=O)OCc4ccccc4)cc(C(=O)OC(C)(C)C)c3)cc(c1OCCCC)Cc1cc(C(=O)Nc3cc(C(=O)OCc4ccccc4)cc(C(=O)OC(C)(C)C)c3)cc(c1OCCCC)C2` [GFB217], the IC50 in experiment [2] (setting [7]) and in experiment [3] (setting [8]) was greater than 10 µM throughout. Further, in experiment [3], the “inhibition of PDGF signaling, in words” value is on record as “did not have a significant activity”. On to `C=CCNC(=O)c1cc(NC(=O)c2cc3c(OCCCC)c(c2)Cc2cc(C(=O)Nc4cc(C(=O)O)cc(C(=O)NCC=C)c4)cc(c2OCCCC)Cc2cc(C(=O)Nc4cc(C(=O)O)cc(C(=O)NCC=C)c4)cc(c2OCCCC)Cc2cc(C(=O)Nc4cc(C(=O)O)cc(C(=O)NCC=C)c4)cc(c2OCCCC)C3)cc(C(=O)O)c1` [GFB216], for which the IC50 in experiment [2] (setting [5]) was greater than 10 µM; in experiment [3] (setting [6]), 0.15 ± 0.01 µM. Take `CCCCOc1c2cc(C(=O)Nc3cc(C(=O)O)cc(C(=O)OC(C)(C)C)c3)cc1Cc1cc(C(=O)Nc3cc(C(=O)O)cc(C(=O)OC(C)(C)C)c3)cc(c1OCCCC)Cc1cc(C(=O)Nc3cc(C(=O)O)cc(C(=O)OC(C)(C)C)c3)cc(c1OCCCC)Cc1cc(C(=O)Nc3cc(C(=O)O)cc(C(=O)OC(C)(C)C)c3)cc(c1OCCCC)C2` [GFB210]: the IC50 is 4.54 ± 0.55 µM in experiment [2] (setting [7]) and 0.35 ± 0.31 µM in experiment [3] (setting [8]).
